Test results taken from ChEMBL document CHEMBL4422686, “Optimization of an azetidine series as inhibitors of colony stimulating factor-1 receptor (CSF-1R) Type II to lead to the clinical candidate JTE-952” (Bioorg Med Chem Lett, 2019).

Columns and labels:
Settings in all cases: in vivo
[1] = Volume of distribution in Sprague-Dawley rat at 1 mg/kg, iv by LC-MS/MS analysis; format: ADME, organism-based
[2] = Oral bioavailability in Sprague-Dawley rat at 3 mg/kg by LC-MS/MS analysis; format: ADME, organism-based
[3] = Mean residence time in cynomolgus monkey at 1 mg/kg, iv by LC-MS/MS analysis; format: ADME, organism-based, Macaca fascicularis
[4] = Cmax in Sprague-Dawley rat at 3 mg/kg, po by LC-MS/MS analysis; format: ADME, organism-based; set-up: dose 3 mg/kg, route oral
[5] = Mean residence time in Sprague-Dawley rat at 1 mg/kg, iv by LC-MS/MS analysis; format: ADME, organism-based
[6] = Volume of distribution in cynomolgus monkey at 1 mg/kg, iv by LC-MS/MS analysis; format: ADME, organism-based, Macaca fascicularis
[7] = AUC in Sprague-Dawley rat at 3 mg/kg, po by LC-MS/MS analysis; format: ADME, organism-based

Row | Vd [1] [L/kg] | bioavailability [2] [%] | MRT [3] [h] | Cmax [4] [µM] | MRT [5] [h] | Vd [6] [L/kg] | AUC [7] [nM·h] | SMILES
1 | 3.46 | 116 | 1.2 | 0.27 | 0.91 | 0.56 | 1630 | COc1cc(C2CN(C(=O)c3cc(COCC(CO)(CO)CO)ccn3)C2)ccc1OCc1ccc(C2CC2)cc1
2 | 3.27 | 85.1 | 7.5 | 0.49 | 1.46 | 5 | 2220 | COc1cc(C2CN(C(=O)c3cc(COC[C@@H](O)CO)ccn3)C2)ccc1OCc1ccc(C2CC2)cc1
3 | 1.51 | 75.8 | 0.28 | 0.74 | 1.37 | 0.76 | 4150 | COc1cc(C2CN(C(=O)c3cc(OC[C@H](O)CO)ccn3)C2)ccc1OCc1ccc(C2CC2)cc1
